Measured values: ChEMBL document CHEMBL3124795, “Synthesis and antiproliferative evaluation of 13-aryl-13H-benzo[g]benzothiazolo [2,3-b]quinazoline-5,14-diones” (Bioorg Med Chem Lett, 2014)

Assays:
[1] = test system: HEK293; test: Antiproliferative activity against human HEK293 cells after 48 hrs by MTT assay; assay type: cell-based; details: HEK293, 48 h
[2] = test system: HeLa; test: Antiproliferative activity against human HeLa cells after 48 hrs by MTT assay; assay type: functional, cell-based
[3] = test system: HepG2; test: Antiproliferative activity against human HepG2 cells after 48 hrs by MTT assay; assay type: functional, cell-based; details: HepG2, 48 h

IC50 [2] [µM] | IC50 [3] [µM] | SMILES | IC50 [1] [µM]
2.99 | 1.66 | O=C1C2=C(C(=O)c3ccccc31)C(c1ccccc1)N1C(=N2)Sc2ccccc21 (configuration not stated) | 4.16
3.96 | 9.4 | O=C1C2=C(C(=O)c3ccccc31)C(c1ccc(F)cc1)N1C(=N2)Sc2ccccc21 (configuration not stated) | 15.1
3.81 | 1.7 | Cc1ccc(C2C3=C(N=C4Sc5ccccc5N42)C(=O)c2ccccc2C3=O)cc1 (configuration not stated) | 5.18
125 | 190 | COc1ccc(OC)c(C2C3=C(N=C4Sc5ccccc5N42)C(=O)c2ccccc2C3=O)c1 (configuration not stated) | > 200
9.32 | 5.03 | COc1cc(C2C3=C(N=C4Sc5ccccc5N42)C(=O)c2ccccc2C3=O)cc(OC)c1OC (configuration not stated) | 11
29 | 14.3 | O=C1C2=C(C(=O)c3ccccc31)C(c1ccc([N+](=O)[O-])cc1)N1C(=N2)Sc2ccccc21 (configuration not stated) | 50.3
2.68 | 3.56 | O=C1C2=C(C(=O)c3ccccc31)C(c1ccc(Cl)cc1Cl)N1C(=N2)Sc2ccccc21 (configuration not stated) | 4.9
15.6 | 23.4 | O=C1C2=C(C(=O)c3ccccc31)C(c1ccc(Cl)cc1)N1C(=N2)Sc2ccccc21 (configuration not stated) | 25.9
6.62 | 9.07 | O=C1C2=C(C(=O)c3ccccc31)C(c1ccco1)N1C(=N2)Sc2ccccc21 (configuration not stated) | 10.1
4.23 | 5.76 | O=C1C2=C(C(=O)c3ccccc31)C(c1cccs1)N1C(=N2)Sc2ccccc21 (configuration not stated) | 5.9
 | 1.15 | COc1cccc2c1C(=O)c1c(O)c3c(c(O)c1C2=O)C[C@@](O)(C(=O)CO)C[C@@H]3O[C@H]1C[C@H](N)[C@H](O)[C@H](C)O1 [DOXORUBICIN] | 1.06
